According to patent publication US10604523B2, “1-aryl-4-methyl-[1,2,4]triazolo[4,3-a]quinoxaline derivatives” (Janssen Pharmaceutica NV, priority 2011, dated 2020):
Read-outs that look alike come from different tables or passages of the source. Each block holds one molecule with its values, some of them ahead of it.

Key:
[1] = molecular target: T1, Human recombinant PDE2A (hPDE2A) (Homo sapiens, UniProt O00408); assay: In vitro assay PDE2A (SPA, 3H-cGMP); type: biochemical; conditions: read-out: pIC50 PDE2 (converted)
T1 construct: made in house; host or cells: Sf9 insect cells (baculovirus)
Procedure: Tested compounds were dissolved and diluted in 100% DMSO to a concentration 100 fold of the final concentration in the assay. Compound dilutions (0.4 μl) were added in 384 well plates to 20 μl of incubation buffer (50 mM Tris pH 7.8, 8.3 mM MgCl2, 1.7 mM EGTA). 10 μl of hPDE2A enzyme in incubation buffer was added and the reaction was started by addition of 10 μl substrate to a final concentration of 10 μM cGMP and 0.01 μCi ^3H-cGMP. The reaction was incubated for 45 minutes at room temperature. […] After sedimentation of the beads during 30 minutes the radioactivity was measured in a Perkin Elmer Topcount scintillation counter and results were expressed as cpm. For blanc values the enzyme was omitted from the reaction and replaced by incubation buffer. Control values were obtained by addition of a final concentration of 1% DMSO instead of compound.

[2] = molecular target: T2, Rat recombinant PDE10A (rPDE10A2) (Rattus norvegicus, UniProt Q9QYJ6); assay: In vitro assay PDE10A (SPA, 3H-cAMP); type: biochemical; conditions: for IC50: read-out: PIC50 PDE10 (converted)
T2 construct: made in house; host or cells: Sf9 insect cells (baculovirus)
T2 sequence (Q9QYJ6 1-794): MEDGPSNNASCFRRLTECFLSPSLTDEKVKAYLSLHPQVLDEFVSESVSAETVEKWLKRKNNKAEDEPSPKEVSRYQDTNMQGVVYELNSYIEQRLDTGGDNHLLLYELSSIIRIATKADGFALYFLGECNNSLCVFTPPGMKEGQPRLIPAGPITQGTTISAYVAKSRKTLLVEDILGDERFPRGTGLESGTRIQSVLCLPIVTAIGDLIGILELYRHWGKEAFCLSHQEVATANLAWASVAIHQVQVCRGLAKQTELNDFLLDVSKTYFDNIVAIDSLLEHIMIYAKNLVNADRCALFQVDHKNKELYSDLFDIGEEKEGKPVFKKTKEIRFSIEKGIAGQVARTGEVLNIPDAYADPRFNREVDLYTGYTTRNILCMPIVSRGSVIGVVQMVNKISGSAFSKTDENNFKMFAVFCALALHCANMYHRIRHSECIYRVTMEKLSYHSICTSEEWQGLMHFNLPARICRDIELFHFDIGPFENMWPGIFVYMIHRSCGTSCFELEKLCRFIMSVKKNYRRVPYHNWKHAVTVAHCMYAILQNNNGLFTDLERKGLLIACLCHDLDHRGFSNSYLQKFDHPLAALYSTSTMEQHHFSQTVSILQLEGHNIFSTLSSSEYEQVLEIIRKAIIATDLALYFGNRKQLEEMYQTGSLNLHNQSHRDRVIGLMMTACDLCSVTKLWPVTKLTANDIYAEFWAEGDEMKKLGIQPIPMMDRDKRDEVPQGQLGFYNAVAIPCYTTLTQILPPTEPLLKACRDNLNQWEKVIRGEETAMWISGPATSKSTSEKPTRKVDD

[3] = test system: Apomorphine-induced agitation; assay: Reversal of Apomorphine-induced Agitation in Rats (APO); type: in vivo, rat; conditions: for PO Max effect (cumulative agitation score over 60 min) / SC Max effect (cumulative agitation score over 60 min): apomorphine 1.0 mg/kg i.v.; for PO LAD (lowest active dose) / SC LAD (lowest active dose): lowest dose at which ≥67% tested animals respond; for SC Dose at max effect / SC Max effect (cumulative agitation score over 60 min) / SC LAD (lowest active dose): subcutaneous route
Procedure: Apomorphine (1.0 mg/kg, i.v.)-induced agitation was scored every 5 min over the first hour after injection of apomorphine. The score system was: (3) pronounced, (2) moderate, (1) slight, and (0) absent. […] For the present purpose, the cumulative agitation score over the whole 60-min observation period was used as a measure to describe the maximum effect (Max effect).

[4] = -log IC50 expressed in mol/L, rPDE10A2, 60 nM cAMP

T1 sequence (O00408 whole entry): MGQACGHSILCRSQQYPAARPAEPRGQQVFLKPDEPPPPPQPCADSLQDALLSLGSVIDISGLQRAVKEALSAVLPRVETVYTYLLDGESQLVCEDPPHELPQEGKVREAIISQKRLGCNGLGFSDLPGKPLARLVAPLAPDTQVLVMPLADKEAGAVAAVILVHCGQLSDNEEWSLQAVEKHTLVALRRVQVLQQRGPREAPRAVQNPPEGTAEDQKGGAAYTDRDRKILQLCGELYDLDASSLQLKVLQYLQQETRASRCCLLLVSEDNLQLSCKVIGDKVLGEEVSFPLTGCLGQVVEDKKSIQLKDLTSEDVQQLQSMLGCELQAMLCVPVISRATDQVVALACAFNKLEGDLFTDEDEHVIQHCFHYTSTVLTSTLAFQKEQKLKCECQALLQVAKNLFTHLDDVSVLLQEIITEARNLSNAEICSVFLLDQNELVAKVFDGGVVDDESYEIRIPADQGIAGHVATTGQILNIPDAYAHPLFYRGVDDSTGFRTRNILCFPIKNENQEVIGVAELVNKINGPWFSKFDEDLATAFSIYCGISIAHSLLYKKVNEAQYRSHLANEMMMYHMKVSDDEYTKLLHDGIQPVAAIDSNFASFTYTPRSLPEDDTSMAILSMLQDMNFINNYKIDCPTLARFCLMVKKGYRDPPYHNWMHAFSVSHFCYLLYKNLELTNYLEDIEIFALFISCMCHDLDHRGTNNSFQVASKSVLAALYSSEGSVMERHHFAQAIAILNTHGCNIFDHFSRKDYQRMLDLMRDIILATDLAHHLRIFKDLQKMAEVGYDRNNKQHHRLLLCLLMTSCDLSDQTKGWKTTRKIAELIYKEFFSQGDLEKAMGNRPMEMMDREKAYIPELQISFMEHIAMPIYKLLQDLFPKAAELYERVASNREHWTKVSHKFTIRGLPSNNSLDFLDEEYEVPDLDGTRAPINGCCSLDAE

IC50 [1]: 14.5 nM
IC50 [2]: 191 nM
SMILES: Cc1nc2ccc(COc3ccccc3)cc2n2c(-c3ccccc3)nnc12 [Compound B-98]

IC50 [2, 4]: 105 nM
SMILES: COc1ccc(Cl)c(-c2nnc3c(C)nc4ccc(CN5CCOCC5)cc4n23)c1 [Compound B-84]
PO Dose at Max Effect [3]: 10 mg/kg
PO Max effect (cumulative agitation score over 60 min) [3]: 21
PO LAD (lowest active dose) [3]: > 10 mg/kg

IC50 [1]: 302 nM
IC50 [2]: > 10000 nM
SMILES: CCCOc1cncc(-c2nnc3c(C)nc4ccc(CNC5CCC5)cc4n23)c1 [Compound B-209]

IC50 [1]: 30.2 nM
IC50 [2]: 1100 nM
SMILES: Cc1nc2ccc(CN3CCC(F)CC3)cc2n2c(-c3cc(OC(C)C)ccc3Cl)nnc12 [Compound B-134]

IC50 [1]: 372 nM
IC50 [2]: > 10000 nM
SMILES: CCOCc1cncc(-c2nnc3c(C)nc4ccc(CNC5CCC5)cc4n23)c1 [Compound B-213]

IC50 [1]: 4.47 nM
IC50 [2]: 31.6 nM
SMILES: Cc1nc2ccc(C(=O)C3CC3)cc2n2c(-c3ccccc3Cl)nnc12 [Compound B-144]

IC50 [1]: 117 nM
IC50 [2]: 741 nM
SMILES: Cc1nc2ccc(Br)cc2n2c(-c3cncc(Cl)c3)nnc12 [Compound B-171]

IC50 [1]: 52.5 nM
IC50 [2]: 380 nM
SMILES: Cc1cncc(-c2nnc3c(C)nc4ccc(Br)cc4n23)c1 [Compound B-154]

IC50 [2, 4]: 8.32 nM
SMILES: Cc1nc2ccc(C(=O)NCc3ccccn3)cc2n2c(-c3ccccc3Cl)nnc12 [Compound B-35]
PO Dose at Max Effect [3]: 10 mg/kg
PO Max effect (cumulative agitation score over 60 min) [3]: 22
PO LAD (lowest active dose) [3]: > 10 mg/kg

IC50 [2]: 19.5 nM
SMILES: Cc1nc2ccc(CN3CCCC(O)C3)cc2n2c(-c3ccccc3Cl)nnc12 (stereo not shown) [Compound B-62]
SC Dose at max effect [3]: 10 mg/kg
SC Max effect (cumulative agitation score over 60 min) [3]: 21
SC LAD (lowest active dose) [3]: > 10 mg/kg

IC50 [1]: 162 nM
SMILES: Cc1cncc(-c2nnc3c(C)nc4ccccc4n23)c1 [Compound B-177]

IC50 [2]: 18.2 nM
SMILES: Cc1nc2ccc(CN3CCC(O)C3)cc2n2c(-c3ccccc3Cl)nnc12 (stereo not shown) [Compound B-57]
SC Dose at max effect [3]: 10 mg/kg
SC Max effect (cumulative agitation score over 60 min) [3]: 22
SC LAD (lowest active dose) [3]: > 10 mg/kg

IC50 [2]: 107 nM
SMILES: Cc1nc2ccc(CN(C)C)cc2n2c(-c3ccccc3Cl)nnc12 [Compound B-107]
SC Dose at max effect [3]: 10 mg/kg
SC Max effect (cumulative agitation score over 60 min) [3]: 20.5
SC LAD (lowest active dose) [3]: > 10 mg/kg

IC50 [2, 4]: 43.7 nM
SMILES: Cc1nc2ccc(Br)cc2n2c(-c3ccccc3Cl)nnc12 [Compound B-3a, 8-Bromo-1-(2-chlorophenyl)-4-methyl[1,2,4]triazolo[4,3-a]quinoxaline]
PO Dose at Max Effect [3]: 10 mg/kg
PO Max effect (cumulative agitation score over 60 min) [3]: 22
PO LAD (lowest active dose) [3]: > 10 mg/kg

IC50 [2]: 251 nM
SMILES: CCNC(=O)c1ccc2nc(C)c3nnc(-c4ccccc4)n3c2c1 [Compound B-65]
PO Dose at Max Effect [3]: 10 mg/kg
PO Max effect (cumulative agitation score over 60 min) [3]: 21
PO LAD (lowest active dose) [3]: > 10 mg/kg

PIC50 PDE10 [2, 4]: 6.58
SMILES: CCOc1ccc(Cl)c(-c2nnc3c(C)nc4ccc(CN5CCOCC5)cc4n23)c1 [Compound B-70]
SC Dose at max effect [3]: 10 mg/kg
SC Max effect (cumulative agitation score over 60 min) [3]: 24
SC LAD (lowest active dose) [3]: > 10 mg/kg

IC50 [2]: > 10000 nM
SMILES: CCCCOc1ccc(F)c(-c2nnc3c(C)nc4cc(Br)ccc4n23)c1 [Compound B-175]

PIC50 PDE10 [2, 4]: 5.11
SMILES: COCCOc1cncc(-c2nnc3c(C)nc4ccc(CN5CCOCC5)cc4n23)c1 [Compound B-203]

IC50 [2, 4]: 178 nM
SMILES: CCNC(=O)c1ccc2nc(C)c3nnc(-c4cccnc4C)n3c2c1 [Compound B-68]
SC Dose at max effect [3]: 10 mg/kg
SC Max effect (cumulative agitation score over 60 min) [3]: 22
SC LAD (lowest active dose) [3]: > 10 mg/kg

IC50 [2]: 44.7 nM
SMILES: Cc1nc2ccc(CN3CCCC(CO)C3)cc2n2c(-c3ccccc3Cl)nnc12 (stereo not shown) [Compound B-110]
SC Dose at max effect [3]: 10 mg/kg
SC Max effect (cumulative agitation score over 60 min) [3]: 21
SC LAD (lowest active dose) [3]: > 10 mg/kg

IC50 [1]: 316 nM
SMILES: Cc1nc2ccccc2n2c(-c3cncc(Cl)c3)nnc12 [Compound B-183]

IC50 [2, 4]: 295 nM
SMILES: CCOC(=O)c1ccc2nc(C)c3nnc(-c4ccccc4)n3c2c1 [Compound B-2a, Ethyl 4-methyl-1-phenyl[1,2,4]triazolo[4,3-a]quinoxaline-8-carboxylate]

IC50 [2]: 468 nM
SMILES: CCCOc1ccc(Cl)c(-c2nnc3c(C)nc4ccc(Br)cc4n23)c1 [Compound B-92]

IC50 [2]: 41.7 nM
SMILES: Cc1nc2ccc(C(=O)NCc3ccccc3)cc2n2c(-c3ccccc3)nnc12 [Compound B-9, N-Benzyl-4-methyl-1-phenyl[1,2,4]triazolo[4,3-a]quinoxaline-8-carboxamide]
PO Dose at Max Effect [3]: 2.5 mg/kg
PO Max effect (cumulative agitation score over 60 min) [3]: 22
PO LAD (lowest active dose) [3]: > 2.5 mg/kg

More lines, now with the values behind:

SMILES: CCCCOc1ccc(Cl)c(-c2nnc3c(C)nc4ccc(CN5CCCC5)cc4n23)c1 [Compound B-79]
IC50 [1]: 8.13 nM
IC50 [2]: 1910 nM

SMILES: COCCNC(=O)c1ccc2nc(C)c3nnc(-c4ccccc4Cl)n3c2c1 [Compound B-37]
IC50 [1]: 0.631 nM
IC50 [2]: 20.4 nM

SMILES: Cc1ccncc1-c1nnc2c(C)nc3ccc(C(=O)C4CC4)cc3n12 [Compound B-24, Cyclopropyl [4-methyl-1-(4-methylpyridin-3-yl) [1,2,4]triazolo[4,3-a]quinoxalin-8-yl]methanone]
IC50 [1]: 39.8 nM
IC50 [2]: 525 nM

SMILES: Cc1nc2ccc(Br)cc2n2c(-c3cc(OC(C)C)ccc3Cl)nnc12 [Compound B-100]
IC50 [1]: 14.8 nM
IC50 [2]: 1230 nM

SMILES: COCCC1CN(Cc2ccc3nc(C)c4nnc(-c5ccccc5Cl)n4c3c2)CCO1 (stereo not shown) [Compound B-106]
IC50 [1]: 19.5 nM
IC50 [2]: 89.1 nM

SMILES: Cc1nc2ccc(C(=O)NCCN3CCOCC3)cc2n2c(-c3ccccc3Cl)nnc12 [Compound B-36]
SC Dose at max effect [3]: 10 mg/kg
SC Max effect (cumulative agitation score over 60 min) [3]: 21
SC LAD (lowest active dose) [3]: > 10 mg/kg
IC50 [2]: 11.2 nM

SMILES: Cc1ncccc1-c1nnc2c(C)nc3ccccc3n12 [Compound B-174]
IC50 [1]: 138 nM

SMILES: COC1CCN(Cc2ccc3nc(C)c4nnc(-c5ccccc5Cl)n4c3c2)CC1 [Compound B-93]
SC Dose at max effect [3]: 10 mg/kg
SC Max effect (cumulative agitation score over 60 min) [3]: 7
SC LAD (lowest active dose) [3]: 10 mg/kg
PIC50 PDE10 [2, 4]: 7.41

SMILES: CCCOc1ccc(Cl)c(-c2nnc3c(C)nc4ccc(CN5CCOCC5)cc4n23)c1 [Compound B-72]
SC Dose at max effect [3]: 10 mg/kg
SC Max effect (cumulative agitation score over 60 min) [3]: 23
SC LAD (lowest active dose) [3]: > 10 mg/kg
PIC50 PDE10 [2, 4]: 6.49

SMILES: Cc1nc2ccc(CN3CCOCC3)cc2n2c(-c3ccc(F)cc3Cl)nnc12 [Compound B-82]
SC Dose at max effect [3]: 10 mg/kg
SC Max effect (cumulative agitation score over 60 min) [3]: 9
SC LAD (lowest active dose) [3]: 2.5 mg/kg
IC50 [2]: 85.1 nM

SMILES: CCNC(=O)c1ccc2nc(C)c3nnc(-c4ccccc4Cl)n3c2c1 [Compound B-10, 1-(2-Chlorophenyl)-N-ethyl-4-methyl[1,2,4]triazolo[4,3-a]quinoxaline-8-carboxamide]
PO Dose at Max Effect [3]: 2.5 mg/kg
PO Max effect (cumulative agitation score over 60 min) [3]: 21
PO LAD (lowest active dose) [3]: > 2.5 mg/kg
IC50 [2, 4]: 21.4 nM

SMILES: COc1cncc(-c2nnc3c(C)nc4ccc(CN5CCOCC5)cc4n23)c1 [Compound B-91]
SC Dose at max effect [3]: 10 mg/kg
SC Max effect (cumulative agitation score over 60 min) [3]: 21
SC LAD (lowest active dose) [3]: > 10 mg/kg
PIC50 PDE10 [2, 4]: 6.57

SMILES: CCCCOc1cncc(-c2nnc3c(C)nc4ccc(CNC)cc4n23)c1 [Compound B-200]
IC50 [2]: > 10000 nM

SMILES: Cc1nc2ccc(CN3CCOCC3)cc2n2c(-c3cncc(OCC4CC4)c3)nnc12 [Compound B-193]
PIC50 PDE10 [2, 4]: 5.44

SMILES: CCN(CC)CCNC(=O)c1ccc2nc(C)c3nnc(-c4ccccc4Cl)n3c2c1 [Compound B-41]
SC Dose at max effect [3]: 10 mg/kg
SC Max effect (cumulative agitation score over 60 min) [3]: 22
SC LAD (lowest active dose) [3]: > 10 mg/kg
IC50 [2]: 44.7 nM

SMILES: Cc1nc2ccc(CN(C)C)cc2n2c(-c3cncc(OCC4CC4)c3)nnc12 [Compound B-205]
IC50 [2]: > 10000 nM

SMILES: CCNCc1ccc2nc(C)c3nnc(-c4cncc(OCC5CC5)c4)n3c2c1 [Compound B-211]
IC50 [2, 4]: > 10000 nM

SMILES: CCCCOc1ccc(Cl)c(-c2nnc3c(C)nc4ccc(CNC)cc4n23)c1 [Compound B-192]
PIC50 PDE10 [2, 4]: 5.04

SMILES: CCCCOc1cncc(-c2nnc3c(C)nc4ccc(CNC(C)C)cc4n23)c1 [Compound B-153]
IC50 [2, 4]: > 10000 nM

SMILES: CCCOc1cncc(-c2nnc3c(C)nc4ccc(CN5CCOCC5)cc4n23)c1 [Compound B-119]
PIC50 PDE10 [2, 4]: 5.21

SMILES: CCOc1ccc(Cl)c(-c2nnc3c(C)nc4ccc(CN(C)C)cc4n23)c1 [Compound B-142]
SC Dose at max effect [3]: 10 mg/kg
SC Max effect (cumulative agitation score over 60 min) [3]: 22
SC LAD (lowest active dose) [3]: > 10 mg/kg
IC50 [2]: 316 nM

SMILES: CCCCOc1ccc(F)c(-c2nnc3c(C)nc4cc(C#N)ccc4n23)c1 [Compound B-176]
IC50 [2]: > 10000 nM
